Test results taken from publication doi:10.1101/2020.06.11.145995v1 (biorxiv, 2020).
Where two headings read alike, the source gives them in different places.

Columns and labels:
Assay in all cases: biochemical
MLK3 = MLK3 (Homo sapiens, UniProt Q16584)
CDK11 = CDK11 (Homo sapiens, UniProt Q9BWU1)
DRAK1 = DRAK1 (Homo sapiens, UniProt Q9UEE5)
GSK3B = GSK3B (Homo sapiens, UniProt P49841)
MAP4K4 = MAP4K4 (Homo sapiens, UniProt O95819)
DRAK2 = DRAK2 (Homo sapiens, UniProt O94768)
CASK = CASK (Homo sapiens, UniProt O14936)
HIPK2 = HIPK2 (Homo sapiens, UniProt Q9H2X6)
BLK = BLK (Homo sapiens, UniProt P51451)
FAK = FAK (Homo sapiens, UniProt Q05397)
CAMK1G = CAMK1G (Homo sapiens, UniProt Q96NX5)
ACVR1B = ACVR1B (Homo sapiens, UniProt P36896)
DMPK2 = DMPK2 (Homo sapiens, UniProt Q6DT37)
LZK = LZK (Homo sapiens, UniProt O43283)
CAMK1D = CAMK1D (Homo sapiens, UniProt Q8IU85)
CDK7 = CDK7 (Homo sapiens, UniProt P50613)
MEK6 = MEK6 (Homo sapiens, UniProt P52564)
Sequence of MEK6 (P52564 whole entry): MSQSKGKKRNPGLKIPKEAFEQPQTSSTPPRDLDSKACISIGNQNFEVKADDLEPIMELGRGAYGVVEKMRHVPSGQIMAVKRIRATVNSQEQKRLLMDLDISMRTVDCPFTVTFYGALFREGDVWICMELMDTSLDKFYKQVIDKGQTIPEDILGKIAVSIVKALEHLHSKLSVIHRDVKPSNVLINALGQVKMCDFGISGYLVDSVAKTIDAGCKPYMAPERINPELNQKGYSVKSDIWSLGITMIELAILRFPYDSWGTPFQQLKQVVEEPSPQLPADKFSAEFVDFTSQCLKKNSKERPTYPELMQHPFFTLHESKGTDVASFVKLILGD

MAPKAPK5 = MAPKAPK5 (Homo sapiens, UniProt Q8IW41)
FGFR3 = FGFR3 (Homo sapiens, UniProt P22607)
Sequence of FGFR3 (P22607 whole entry): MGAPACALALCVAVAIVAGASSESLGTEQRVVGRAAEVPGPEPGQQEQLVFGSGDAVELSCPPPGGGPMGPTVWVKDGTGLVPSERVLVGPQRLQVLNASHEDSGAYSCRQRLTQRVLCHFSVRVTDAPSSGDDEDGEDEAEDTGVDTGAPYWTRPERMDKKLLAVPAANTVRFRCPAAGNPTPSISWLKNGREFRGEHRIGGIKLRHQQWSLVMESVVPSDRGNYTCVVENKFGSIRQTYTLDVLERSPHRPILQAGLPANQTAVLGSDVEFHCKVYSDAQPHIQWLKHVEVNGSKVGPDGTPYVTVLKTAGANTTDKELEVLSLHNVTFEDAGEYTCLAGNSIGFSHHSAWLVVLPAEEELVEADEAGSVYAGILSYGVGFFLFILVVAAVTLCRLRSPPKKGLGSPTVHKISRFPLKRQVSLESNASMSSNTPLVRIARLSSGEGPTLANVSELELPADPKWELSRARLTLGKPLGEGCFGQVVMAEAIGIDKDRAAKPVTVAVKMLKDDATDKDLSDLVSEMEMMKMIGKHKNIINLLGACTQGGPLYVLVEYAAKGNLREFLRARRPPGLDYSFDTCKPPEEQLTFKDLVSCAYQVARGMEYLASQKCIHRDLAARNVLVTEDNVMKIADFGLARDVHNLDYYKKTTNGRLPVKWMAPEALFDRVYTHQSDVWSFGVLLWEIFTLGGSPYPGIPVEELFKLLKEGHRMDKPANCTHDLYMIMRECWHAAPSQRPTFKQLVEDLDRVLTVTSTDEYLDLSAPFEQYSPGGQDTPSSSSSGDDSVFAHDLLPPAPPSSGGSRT

AURKC = AURKC (Homo sapiens, UniProt Q9UQB9)
IRAK3 = IRAK3 (Homo sapiens, UniProt Q9Y616)
Sequence of IRAK3 (Q9Y616 whole entry): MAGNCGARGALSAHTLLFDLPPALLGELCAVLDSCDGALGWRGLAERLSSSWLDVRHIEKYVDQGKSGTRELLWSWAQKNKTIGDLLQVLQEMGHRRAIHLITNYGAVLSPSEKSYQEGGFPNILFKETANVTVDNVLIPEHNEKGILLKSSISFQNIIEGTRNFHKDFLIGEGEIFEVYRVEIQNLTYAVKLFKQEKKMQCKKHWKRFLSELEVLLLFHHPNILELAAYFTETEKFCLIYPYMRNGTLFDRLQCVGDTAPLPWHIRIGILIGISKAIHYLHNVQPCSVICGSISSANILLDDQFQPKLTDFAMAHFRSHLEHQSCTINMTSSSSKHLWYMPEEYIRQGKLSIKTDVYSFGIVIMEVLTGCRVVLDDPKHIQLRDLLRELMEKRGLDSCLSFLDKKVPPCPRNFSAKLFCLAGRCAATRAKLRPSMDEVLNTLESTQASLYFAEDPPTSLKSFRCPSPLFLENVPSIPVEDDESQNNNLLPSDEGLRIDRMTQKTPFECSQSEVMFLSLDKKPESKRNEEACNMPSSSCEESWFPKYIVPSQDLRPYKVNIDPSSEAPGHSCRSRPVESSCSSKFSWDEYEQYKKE

DYRK1A = DYRK1A (Homo sapiens, UniProt Q13627)
LYN = LYN (Homo sapiens, UniProt P07948)
HCK = HCK (Homo sapiens, UniProt P08631)
FGFR3(G697C) = FGFR3(G697C) (Homo sapiens, UniProt P22607, G697C)
Sequence of FGFR3(G697C) (P22607 whole entry G697C): as the sequence (P22607 whole entry) above, with G697C counted along it

FLT3 = FLT3 (Homo sapiens, UniProt P36888)
ICK = ICK (Homo sapiens, UniProt Q9UPZ9)
CSNK1E = CSNK1E (Homo sapiens, UniProt P49674)
CSNK1A1L = CSNK1A1L (Homo sapiens, UniProt Q8N752)
ANKK1 = ANKK1 (Homo sapiens, UniProt Q8NFD2)
Sequence of ANKK1 (Q8NFD2 whole entry): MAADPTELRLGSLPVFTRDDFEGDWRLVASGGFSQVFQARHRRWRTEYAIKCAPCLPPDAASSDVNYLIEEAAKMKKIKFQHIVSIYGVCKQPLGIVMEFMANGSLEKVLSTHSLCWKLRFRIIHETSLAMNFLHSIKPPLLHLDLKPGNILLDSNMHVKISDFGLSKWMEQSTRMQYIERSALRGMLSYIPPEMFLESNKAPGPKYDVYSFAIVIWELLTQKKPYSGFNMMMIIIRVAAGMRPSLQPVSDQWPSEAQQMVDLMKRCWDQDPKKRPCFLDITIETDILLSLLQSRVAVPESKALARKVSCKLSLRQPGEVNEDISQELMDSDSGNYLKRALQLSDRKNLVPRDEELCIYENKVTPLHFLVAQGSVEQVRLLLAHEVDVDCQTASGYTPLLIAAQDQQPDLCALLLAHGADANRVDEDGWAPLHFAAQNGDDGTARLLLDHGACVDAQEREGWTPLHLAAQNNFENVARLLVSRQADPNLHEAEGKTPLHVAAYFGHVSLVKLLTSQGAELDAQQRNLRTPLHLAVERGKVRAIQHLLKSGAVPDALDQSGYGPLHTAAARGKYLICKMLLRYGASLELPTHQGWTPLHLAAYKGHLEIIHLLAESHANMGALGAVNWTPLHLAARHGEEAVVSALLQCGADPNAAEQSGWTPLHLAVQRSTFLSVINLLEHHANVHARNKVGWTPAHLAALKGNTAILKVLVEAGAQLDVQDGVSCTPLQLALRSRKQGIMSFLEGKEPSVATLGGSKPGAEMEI

[1] = read-out: CPT-1-70-1 (1uM) % control
[2] = read-out: HYJ-2-002-1 (1uM) % control

Sequence of GSK3B (P49841 whole entry): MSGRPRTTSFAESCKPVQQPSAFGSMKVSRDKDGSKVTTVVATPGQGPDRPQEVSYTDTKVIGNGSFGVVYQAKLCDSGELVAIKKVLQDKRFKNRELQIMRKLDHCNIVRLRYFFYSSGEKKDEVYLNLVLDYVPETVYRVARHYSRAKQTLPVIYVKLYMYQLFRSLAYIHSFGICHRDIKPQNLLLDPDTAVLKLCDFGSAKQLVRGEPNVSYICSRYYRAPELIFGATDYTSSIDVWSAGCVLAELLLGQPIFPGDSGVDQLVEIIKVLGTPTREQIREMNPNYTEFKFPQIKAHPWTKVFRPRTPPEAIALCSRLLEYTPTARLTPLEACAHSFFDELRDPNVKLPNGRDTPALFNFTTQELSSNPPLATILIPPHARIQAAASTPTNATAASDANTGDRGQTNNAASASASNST
Sequence of MLK3 (Q16584 whole entry): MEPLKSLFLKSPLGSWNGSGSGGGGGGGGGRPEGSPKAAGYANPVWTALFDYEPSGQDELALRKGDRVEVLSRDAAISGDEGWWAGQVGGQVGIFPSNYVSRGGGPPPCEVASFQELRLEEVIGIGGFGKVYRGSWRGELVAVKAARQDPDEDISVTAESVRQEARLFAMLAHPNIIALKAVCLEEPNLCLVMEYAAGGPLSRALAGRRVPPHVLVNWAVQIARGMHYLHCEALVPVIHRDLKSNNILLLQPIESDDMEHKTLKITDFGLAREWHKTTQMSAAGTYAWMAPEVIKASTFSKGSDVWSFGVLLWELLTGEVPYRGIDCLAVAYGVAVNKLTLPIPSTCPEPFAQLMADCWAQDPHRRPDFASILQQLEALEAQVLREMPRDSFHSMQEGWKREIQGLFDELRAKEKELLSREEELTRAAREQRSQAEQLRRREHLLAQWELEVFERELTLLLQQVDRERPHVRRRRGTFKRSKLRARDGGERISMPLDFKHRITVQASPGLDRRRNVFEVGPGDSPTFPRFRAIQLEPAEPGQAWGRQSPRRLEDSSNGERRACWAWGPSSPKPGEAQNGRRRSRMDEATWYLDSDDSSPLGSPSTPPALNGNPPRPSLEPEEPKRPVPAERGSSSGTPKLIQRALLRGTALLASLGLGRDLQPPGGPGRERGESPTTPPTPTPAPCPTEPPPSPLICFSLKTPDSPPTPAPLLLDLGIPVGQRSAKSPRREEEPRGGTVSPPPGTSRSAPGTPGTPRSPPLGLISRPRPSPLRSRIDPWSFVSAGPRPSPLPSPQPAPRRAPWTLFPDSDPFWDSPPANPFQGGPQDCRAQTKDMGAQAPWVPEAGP
Sequence of MAP4K4 (O95819 whole entry): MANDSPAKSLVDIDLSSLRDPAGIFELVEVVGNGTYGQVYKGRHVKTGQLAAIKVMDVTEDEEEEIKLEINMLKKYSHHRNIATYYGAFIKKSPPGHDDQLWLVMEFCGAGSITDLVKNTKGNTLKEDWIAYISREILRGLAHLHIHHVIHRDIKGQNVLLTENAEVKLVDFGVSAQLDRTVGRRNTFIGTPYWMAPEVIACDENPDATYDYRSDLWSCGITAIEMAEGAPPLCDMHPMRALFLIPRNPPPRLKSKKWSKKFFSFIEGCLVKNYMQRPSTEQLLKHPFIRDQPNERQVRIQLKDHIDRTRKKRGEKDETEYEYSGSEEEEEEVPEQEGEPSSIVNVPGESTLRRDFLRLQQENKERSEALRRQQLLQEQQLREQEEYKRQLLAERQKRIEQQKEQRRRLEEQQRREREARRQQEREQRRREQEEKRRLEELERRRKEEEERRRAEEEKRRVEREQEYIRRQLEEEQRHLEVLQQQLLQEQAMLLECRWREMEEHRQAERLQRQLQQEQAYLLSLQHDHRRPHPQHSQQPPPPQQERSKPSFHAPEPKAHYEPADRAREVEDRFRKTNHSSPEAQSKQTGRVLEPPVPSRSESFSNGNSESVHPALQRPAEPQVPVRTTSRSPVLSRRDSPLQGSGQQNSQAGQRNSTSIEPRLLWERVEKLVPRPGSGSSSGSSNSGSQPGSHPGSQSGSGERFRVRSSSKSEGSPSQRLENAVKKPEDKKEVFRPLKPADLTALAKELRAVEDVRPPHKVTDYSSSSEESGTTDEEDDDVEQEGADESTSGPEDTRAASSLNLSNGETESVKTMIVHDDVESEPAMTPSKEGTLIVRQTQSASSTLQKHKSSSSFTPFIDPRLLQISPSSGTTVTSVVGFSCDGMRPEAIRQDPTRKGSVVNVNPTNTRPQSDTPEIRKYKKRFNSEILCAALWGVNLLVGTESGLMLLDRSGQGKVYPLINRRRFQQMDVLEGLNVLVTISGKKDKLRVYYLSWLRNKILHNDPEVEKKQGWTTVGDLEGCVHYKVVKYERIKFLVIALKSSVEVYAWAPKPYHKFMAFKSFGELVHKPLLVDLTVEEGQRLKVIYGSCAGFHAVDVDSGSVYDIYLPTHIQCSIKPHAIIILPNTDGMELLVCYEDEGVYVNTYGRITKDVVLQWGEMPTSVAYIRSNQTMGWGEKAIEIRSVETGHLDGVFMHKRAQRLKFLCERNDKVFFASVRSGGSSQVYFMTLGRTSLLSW

Work on `CN1CCN(c2ccc(Nc3nc(Oc4ccc(NC(=O)CCl)cc4)c4cc[nH]c4n3)cc2)CC1` [CPT1-70-1] yielded a remaining activity at 1 µM (MLK3; [1]) of 91%, a remaining activity at 1 µM (CDK11; [1]) of 100% and a remaining activity at 1 µM (DRAK1; [1]) of 14%. The remaining activity at 1 µM (GSK3B; [1]) was 98%, the remaining activity at 1 µM (MAP4K4; [1]) was 49% and the remaining activity at 1 µM (DRAK2; [1]) was 90%. For the same compound, the remaining activity at 1 µM (CASK; [1]) was 100%, the remaining activity at 1 µM (HIPK2; [1]) was 90% and the remaining activity at 1 µM (BLK; [1]) was 1.6%. For the same compound, the remaining activity at 1 µM (FAK; [1]) was 85%, the remaining activity at 1 µM (CAMK1G; [1]) was 50% and the remaining activity at 1 µM (ACVR1B; [1]) was 100%. For the same compound, the remaining activity at 1 µM (DMPK2; [1]) was 67%, the remaining activity at 1 µM (LZK; [1]) was 73% and the remaining activity at 1 µM (CAMK1D; [1]) was 56%. The remaining activity at 1 µM (CDK7; [1]) was 100%, the remaining activity at 1 µM (MEK6; [1]) was 55% and the remaining activity at 1 µM (MAPKAPK5; [1]) was 98%. It also gave a remaining activity at 1 µM (FGFR3; [1]) of 35%, a remaining activity at 1 µM (AURKC; [1]) of 51% and a remaining activity at 1 µM (IRAK3; [1]) of 89%. It also gave a remaining activity at 1 µM (DYRK1A; [1]) of 100%, a remaining activity at 1 µM (LYN; [1]) of 49% and a remaining activity at 1 µM (HCK; [1]) of 85%. It also gave a remaining activity at 1 µM (FGFR3(G697C); [1]) of 34%, a remaining activity at 1 µM (FLT3; [1]) of 3% and a remaining activity at 1 µM (ICK; [1]) of 100%. The remaining activity at 1 µM (CSNK1E; [1]) was 18%, the remaining activity at 1 µM (CSNK1A1L; [1]) was 80% and the remaining activity at 1 µM (ANKK1; [1]) was 93%.
`CCN1CCN(Cc2ccc(NC(=O)c3ccc(C)c(CCc4cnc5[nH]ccc5c4OC)c3)cc2C(F)(F)F)CC1` [HYJ-2-002-1] showed a remaining activity at 1 µM (MLK3; [2]) of 53%, a remaining activity at 1 µM (CDK11; [2]) of 14% and a remaining activity at 1 µM (DRAK1; [2]) of 82%. It also gave a remaining activity at 1 µM (GSK3B; [2]) of 88%, a remaining activity at 1 µM (MAP4K4; [2]) of 11% and a remaining activity at 1 µM (DRAK2; [2]) of 57%. For the same compound, the remaining activity at 1 µM (CASK; [2]) was 100%, the remaining activity at 1 µM (HIPK2; [2]) was 84% and the remaining activity at 1 µM (BLK; [2]) was 0.1%. For the same compound, the remaining activity at 1 µM (FAK; [2]) was 91%, the remaining activity at 1 µM (CAMK1G; [2]) was 94% and the remaining activity at 1 µM (ACVR1B; [2]) was 100%. The remaining activity at 1 µM (DMPK2; [2]) was 92%, the remaining activity at 1 µM (LZK; [2]) was 78% and the remaining activity at 1 µM (CAMK1D; [2]) was 94%. The remaining activity at 1 µM (CDK7; [2]) was 44%, the remaining activity at 1 µM (MEK6; [2]) was 91% and the remaining activity at 1 µM (MAPKAPK5; [2]) was 100%. The remaining activity at 1 µM (FGFR3; [2]) was 28%, the remaining activity at 1 µM (AURKC; [2]) was 80% and the remaining activity at 1 µM (IRAK3; [2]) was 100%. It also gave a remaining activity at 1 µM (DYRK1A; [2]) of 62%, a remaining activity at 1 µM (LYN; [2]) of 0.15% and a remaining activity at 1 µM (HCK; [2]) of 0.55%. For the same compound, the remaining activity at 1 µM (FGFR3(G697C); [2]) was 29%, the remaining activity at 1 µM (FLT3; [2]) was 0.5% and the remaining activity at 1 µM (ICK; [2]) was 100%. The remaining activity at 1 µM (CSNK1E; [2]) was 75%, the remaining activity at 1 µM (CSNK1A1L; [2]) was 100% and the remaining activity at 1 µM (ANKK1; [2]) was 9.4%.
